Measured values: US6613758B1, “Method for treating osteoporosis in castrated prostatic cancer patients” (Barr Laboratories, Inc., priority 1999, dated 2003)

Assays:
[1] = test system: human breast cancer ZR-75-1 cells; settings: low concentrations, in vitro; cited from earlier work
[2] = men; cited from earlier work
[3] = orchiectomized patients, 6 months, 150 mg/day CPA (50 mg t.i.d.); cited from earlier work
[4] = castrated adult rats; cited from earlier work
[5] = male subjects, oral, one 50 mg dose; cited from earlier work
[6] = cited from earlier work
[7] = 367 evaluable patients; criteria weight gain and pain relief; cited from earlier work
[8] = pharmacokinetics of CPA in humans, plasma concentration; type: in vivo, human; settings: longer period of continual dosing of 50 mg per day
Description: The Androcur® Monograph, Berlex, Canada (1997) reports on the pharmacokinetics of CPA in humans. […] Blood levels of CPA are known to be generally dose dependent.

[9] = 17 patients, goserelin alone; cited from earlier work

Question: Which androgenic activity [1] does the source give for `CC(=O)O[C@]1(C(C)=O)CC[C@H]2[C@@H]3C=C(Cl)C4=CC(=O)[C@@H]5C[C@@H]5[C@]4(C)[C@H]3CC[C@@]21C` [CPA, Cyproterone acetate] here?
Answer: possess androgenic activity

Question: What about the “threshold value for an antiandrogen effect” value [2] of the same compound?
Answer: 50 mg

Question: What about the “number of patients experiencing hot flashes or outbreaks of sweating” value [3] of the same compound?
Answer: decreased

Question: What about the “inhibition of complete involution of the ventral prostate” value [4] of the same compound?
Answer: very weak

Question: And the mean plasma concentration [5]?
Answer: about 700 nmol/L

Question: And the “discontinuation due to side effects” value ([6]; 89 orchiectomized patients, 50 mg/day CPA, 2 to 152 months)?
Answer: in no case

Question: What about the “cases of hepatocellular carcinoma” value ([6]; over 2500 patients, long term CPA use) of the same compound?
Answer: Not a single case

Question: And the “patients with general improvement in subjective assessment of quality of life” value [7]?
Answer: 70%

Question: And the “cumulative plasma level, steady state” value [8]?
Answer: ≥ 750 nmol/L

Question: With `C#C[C@]1(O)CC[C@H]2[C@@H]3CCC4=CC(=O)CC[C@]4(C)[C@H]3CC[C@@]21C` [ethisterone] as the compound, how does the androgenic activity [1] read?
Answer: possess androgenic activity

Question: For `CC(C)C[C@H](NC(=O)[C@@H](COC(C)(C)C)NC(=O)[C@H](Cc1ccc(O)cc1)NC(=O)[C@H](CO)NC(=O)[C@H](Cc1c[nH]c2ccccc12)NC(=O)[C@H](Cc1cnc[nH]1)NC(=O)[C@@H]1CCC(=O)N1)C(=O)N[C@@H](CCCNC(=N)N)C(=O)N1CCC[C@H]1C(=O)NNC(N)=O` [goserelin], which “patients with transient increase in bone pain” value [9] is on record?
Answer: 58.5%

Question: Which androgenic activity [1] does the source give for `C[C@]12CC[C@H]3[C@@H](CCC4=CC(=O)CC[C@@H]43)[C@@H]1CC[C@@H]2O` [nor-testosterone] here?
Answer: possess androgenic activity
